Test results published in publication PMC9161616, “A first-in-human phase 1/2 study of FGF401 and combination of FGF401 with spartalizumab in patients with hepatocellular carcinoma or biomarker-selected solid tumors” (Journal of Experimental & Clinical Cancer Research : CR, 2022).
Read-outs that look alike come from different tables or passages of the source.

Assay: Plasma pharmacokinetics of FGF401 (noncompartmental) and food effect
Type: in vivo, human
Description: Pharmacokinetic endpoints included plasma concentrations and PK parameters of FGF401 and spartalizumab. Pharmacokinetic parameters were determined with noncompartmental method(s) using Phoenix WinNonlin version 6.4 or above (Pharsight Corporation, Mountain View, Califormia, USA). Immunogenicity of spartalizumab was assessed through presence and/or concentration of anti-drug (spartalizumab) antibodies (ADA). Food effect on FGF401 exposure was evaluated through plasma concentration of FGF401 and relevant PK parameters when dosing under fed condition. Safety of the food effect was assessed through incidence and severity of AEs and serious AEs (SAEs), including changes in laboratory values, vital signs, and ECGs when dosing under fed condition. The PK analyses and summary statistics were based on pharmacokinetic analysis set. Individual as well as mean concentration-time profiles were constructed using concentration data for spartalizumab and FGF401. Descriptive statistics for PK parameters included mean, standard deviation, coefficient of variation (CV%) mean, geometric mean, median, minimum, and maximum, with only the latter 3 for time to reach maximum concentration (Tmax) and additional 90% CI for accumulation ratio (Racc). Zero concentrations were not included in the geometric mean calculations. Missing concentrations or PK parameter values were not imputed.

[1] = human, plasma, oral, 80 mg, Cycle 1 day 8, 80 mg Fasted, n=6, geometric mean (CV%)
[2] = human, plasma, oral, 80 mg, Cycle 1 day 8, 80 mg Fed, n=4, geometric mean (CV%)
[3] = human, plasma, oral, 150 mg, Cycle 1 day 8, 150 mg Fasted, n=6, geometric mean (CV%)
[4] = low fat meals, 80 mg and 120 mg

## COCCNc1cc(NC(=O)N2CCCc3cc(CN4CCN(C)CC4=O)c(C=O)nc32)ncc1C#N [FGF401, roblitinib]
50 to 150 mg, fasted and fasted-fed combined
  dose proportionality of exposures (AUC and Cmax): increased slightly under dose proportion
C1D8 and C2D1 versus C1D1
  Racc: around 1
Cycle 1 day 8, 50 mg Fasted, n=6, geometric mean (CV%)
  Racc: 0.929 (12.1)
Cycle 1 day 8, 80 mg Fasted, n=5, geometric mean (CV%)
  Racc: 0.97 (14.3)
Cycle 1 day 8, 80 mg Fed, n=4, geometric mean (CV%)
  Racc: 1.04 (18.6)
Cycle 1 day 8, 120 mg Fasted, n=24, geometric mean (CV%)
  Racc: 1.03 (26.2)
Cycle 1 day 8, 120 mg Fed, n=15, geometric mean (CV%)
  Racc: 0.95 (22.5)
Cycle 1 day 8, 150 mg Fasted, n=6, geometric mean (CV%)
  Racc: 0.982 (33.3)
Dosed with low-fat meals, 80 mg and 120 mg
  food effect: no food effect
Even at 50 mg qd
  mean trough concentration at steady state (24 h post-dose) versus phospho-FGFR4 IC90: approximately above this IC90
human, plasma, oral, 50 mg, Cycle 1 day 8, 50 mg Fasted, n=6, geometric mean (CV%)
  AUC(0-inf): 3650 ng·h/mL
human, plasma, oral, 50 mg, Cycle 1 day 8, 50 mg Fasted, n=6, geometric mean (CV%), read-out: T1/2 (converted)
  half-life: 6.57 h
human, plasma, oral, 50 mg, Cycle 1 day 8, 50 mg Fasted, n=7, geometric mean (CV%)
  Cmax: 663 ng/mL
human, plasma, oral, 50 mg, Cycle 1 day 8, 50 mg Fasted, n=7, geometric mean (CV%), read-out: AUC0-24h
  AUC(0-t): 3650 ng·h/mL
human, plasma, oral, 50 mg, Cycle 1 day 8, 50 mg Fasted, n=7, geometric mean (CV%), read-out: AUClast
  AUC(0-t): 3460 ng·h/mL
human, plasma, oral, 50 mg, Cycle 1 day 8, 50 mg Fasted, n=7, median [min, max], read-out: Tmax
  Tmax: 1 h
[1]
  AUC(0-inf): 5130 ng·h/mL
  Cmax: 838 ng/mL
human, plasma, oral, 80 mg, Cycle 1 day 8, 80 mg Fasted, n=6, geometric mean (CV%), read-out: AUC0-24h
  AUC(0-t): 4850 ng·h/mL
human, plasma, oral, 80 mg, Cycle 1 day 8, 80 mg Fasted, n=6, geometric mean (CV%), read-out: AUClast
  AUC(0-t): 4840 ng·h/mL
human, plasma, oral, 80 mg, Cycle 1 day 8, 80 mg Fasted, n=6, geometric mean (CV%), read-out: T1/2 (converted)
  half-life: 6.08 h
human, plasma, oral, 80 mg, Cycle 1 day 8, 80 mg Fasted, n=6, median [min, max], read-out: Tmax
  Tmax: 1.01 h
[2]
  AUC(0-inf): 5550 ng·h/mL
  Cmax: 704 ng/mL
human, plasma, oral, 80 mg, Cycle 1 day 8, 80 mg Fed, n=4, geometric mean (CV%), read-out: AUC0-24h
  AUC(0-t): 5290 ng·h/mL
human, plasma, oral, 80 mg, Cycle 1 day 8, 80 mg Fed, n=4, geometric mean (CV%), read-out: AUClast
  AUC(0-t): 5280 ng·h/mL
human, plasma, oral, 80 mg, Cycle 1 day 8, 80 mg Fed, n=4, geometric mean (CV%), read-out: T1/2 (converted)
  half-life: 5.58 h
human, plasma, oral, 80 mg, Cycle 1 day 8, 80 mg Fed, n=4, median [min, max], read-out: Tmax
  Tmax: 2.5 h
human, plasma, oral, 120 mg, Cycle 1 day 8, 120 mg Fasted, n=18, geometric mean (CV%)
  AUC(0-inf): 7590 ng·h/mL
human, plasma, oral, 120 mg, Cycle 1 day 8, 120 mg Fasted, n=18, geometric mean (CV%), read-out: T1/2 (converted)
  half-life: 5.43 h
human, plasma, oral, 120 mg, Cycle 1 day 8, 120 mg Fasted, n=24, geometric mean (CV%)
  Cmax: 1120 ng/mL
human, plasma, oral, 120 mg, Cycle 1 day 8, 120 mg Fasted, n=24, geometric mean (CV%), read-out: AUC0-24h
  AUC(0-t): 6970 ng·h/mL
human, plasma, oral, 120 mg, Cycle 1 day 8, 120 mg Fasted, n=24, geometric mean (CV%), read-out: AUClast
  AUC(0-t): 6480 ng·h/mL
human, plasma, oral, 120 mg, Cycle 1 day 8, 120 mg Fasted, n=24, median [min, max], read-out: Tmax
  Tmax: 1.04 h
human, plasma, oral, 120 mg, Cycle 1 day 8, 120 mg Fed, n=15, geometric mean (CV%)
  AUC(0-inf): 7980 ng·h/mL
human, plasma, oral, 120 mg, Cycle 1 day 8, 120 mg Fed, n=15, geometric mean (CV%), read-out: T1/2 (converted)
  half-life: 5.58 h
human, plasma, oral, 120 mg, Cycle 1 day 8, 120 mg Fed, n=16, geometric mean (CV%), read-out: AUC0-24h
  AUC(0-t): 7330 ng·h/mL
human, plasma, oral, 120 mg, Cycle 1 day 8, 120 mg Fed, n=18, geometric mean (CV%)
  Cmax: 1060 ng/mL
human, plasma, oral, 120 mg, Cycle 1 day 8, 120 mg Fed, n=18, geometric mean (CV%), read-out: AUClast
  AUC(0-t): 7640 ng·h/mL
human, plasma, oral, 120 mg, Cycle 1 day 8, 120 mg Fed, n=18, median [min, max], read-out: Tmax
  Tmax: 3.01 h
[3]
  AUC(0-inf): 7850 ng·h/mL
  Cmax: 1070 ng/mL
human, plasma, oral, 150 mg, Cycle 1 day 8, 150 mg Fasted, n=6, geometric mean (CV%), read-out: AUC0-24h
  AUC(0-t): 7510 ng·h/mL
human, plasma, oral, 150 mg, Cycle 1 day 8, 150 mg Fasted, n=6, geometric mean (CV%), read-out: AUClast
  AUC(0-t): 7550 ng·h/mL
human, plasma, oral, 150 mg, Cycle 1 day 8, 150 mg Fasted, n=6, geometric mean (CV%), read-out: T1/2 (converted)
  half-life: 5.24 h
human, plasma, oral, 150 mg, Cycle 1 day 8, 150 mg Fasted, n=6, median [min, max], read-out: Tmax
  Tmax: 2.42 h
human, plasma, oral, cycle 1 day 1, read-out: median Tmax across phase 1 treatment groups
  Tmax: 1 to 2.98 h
human, plasma, oral, cycle 1 day 8, read-out: median Tmax across phase 1 treatment groups
  Tmax: 1 to 3.01 h
human, plasma, oral, cycle 2 day 1, read-out: median Tmax across phase 1 treatment groups
  Tmax: 1.01 to 3.02 h
human, plasma, oral, over all treatments and during all periods, read-out: terminal half-life (T1/2)
  half-life: 4.91 to 6.57 h
human, plasma, oral, 120 mg fasted, C1D8, geometric mean, CV 38.7%, read-out: AUCtau at steady state
  AUC: 6970 ng·h/mL
In vivo
  overall interpatient variability of drug exposure: moderate
[4]
  food effect on Tmax: slightly delayed Tmax
  food effect on half-life: no effect on half-life
Qd dosing
  drug accumulation following repeated dosing: no drug accumulation
